Patent US20260098045A1, “CRYSTALLINE FORM OF (3S,7S,10R,13R)-13-BENZYL-20-FLUORO-7-ISOBUTYL-N-(2-(3-METHOXY-1,2,4-OXADIAZOL-5-YL)ETHYL)-6,9-DIMETHYL-1,5,8,11-TETRAOXO-10-(2,2,2-TRIFLUOROETHYL)-1,2,3,4,5,6,7,8,9,10,11,12,13,14-TETRADECAHYDRO-[1]OXA[4,7,10,14]TETRAAZACYCLOHEPTADECINO[16,17-F]QUINOLINE-3-CARBOXAMIDE” (Idorsia Pharmaceuticals Ltd, priority 2022, published 2026)

Assay: Gravimetric vapour sorption (GVS) analysis
Format: physicochemical
Details: sample of Example 6
Procedure: Measurements are performed on a multi-sample instrument SPS-100n (Projekt Messtechnik, Ulm, Germany), which is operated in stepping mode at 25° C. A sample of approximately 20 mg is equilibrated at 40% RH before starting a pre-defined humidity program of 40-0-95-0-95-40% RH with steps of 5% ARH and a maximum equilibration time of 24 h per step. The hygroscopic classification is done according to the European Pharmacopeia Technical Guide (1999, page 86), e.g., non-hygroscopic: increase in mass less than 0.2% mass/mass; slightly hygroscopic: increase in mass is less than 2% and equal to or greater than 0.2% mass/mass; hygroscopic: increase in mass is less than 15% and equal to or greater than 2% mass/mass. The mass change between 40% relative humidity and 80% relative humidity in the first adsorption scan is evaluated for this classification.

COc1noc(CCNC(=O)[C@@H]2CC(=O)N(C)[C@@H](CC(C)C)C(=O)N(C)[C@H](CC(F)(F)F)C(=O)N[C@H](Cc3ccccc3)COc3ccc4ncc(F)cc4c3C(=O)N2)n1 [form 1 of the COMPOUND, (3S,7S,10R,13R)-13-benzyl-20-fluoro-7-isobutyl-N-(2-(3-methoxy-1,2,4-oxadiazol-5-yl)ethyl)-6,9-dimethyl-1,5,8,11-tetraoxo-10-(2,2,2-trifluoroethyl)-1,2,3,4,5,6,7,8,9,10,11,12,13,14-tetradecahydro-[1]oxa[4,7,10,14]tetraazacycloheptadecino[16,17-f]quinoline-3-carboxamide]
GVS change of the water content (between 0% and 95% RH, 25° C., almost linear, small hysteresis between ca. 50% and 85% RH): 2%
GVS maximum water content (corresponds to approximately 1 equivalent of water): 2%
